How the values were obtained:
recombinant hCD38 = molecular target: T1, recombinant hCD38 (Homo sapiens, UniProt P28907); assay: Metabolic assay of NAD+ (degradation by recombinant hCD38); format: biochemical; settings: sUA 100, 200 or 500 μM; NAD+ 200 μM; hCD38 20 ng/mL; Figure 3F
T1 construct: the commercial recombinant hCD38 without a transmembrane region was partially used in this study; purchased Sino Biological 10818-H08H
T1 sequence (P28907 43-300 limits assumed): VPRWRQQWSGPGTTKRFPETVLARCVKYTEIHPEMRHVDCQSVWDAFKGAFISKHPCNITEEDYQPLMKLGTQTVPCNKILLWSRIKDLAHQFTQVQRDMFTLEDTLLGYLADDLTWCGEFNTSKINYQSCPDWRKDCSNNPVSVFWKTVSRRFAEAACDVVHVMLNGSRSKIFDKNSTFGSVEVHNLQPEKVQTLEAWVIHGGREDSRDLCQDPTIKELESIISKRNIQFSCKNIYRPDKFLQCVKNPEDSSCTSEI
Procedure: NAD^+ degradation by recombinant hCD38 was detected in hydrolase reaction buffer. At first, sUA (100, 200, and 500 μM) or other ligands at 500 μM in hydrolase reaction buffer (250 mM sucrose, 40 mM Tris) was freshly prepared, then the pH was immediately adjusted to 7.4 by HCl. Recombinant hCD38 was added into the buffer of experimental groups at 20 ng/mL, then the buffer was maintained at 37°C. The substrate NAD^+ was dissolved in hydrolase reaction buffer (pH 7.4) at 10 mM, and the pH was further adjusted to 7.4. The reaction was started with the addition of NAD^+ in the buffer for each group (final concentration is 200 μM), including control group (recombinant hCD38 free). All the buffers were incubated at 37°C with constant stirring. […]
As mentioned above, samples (cells, tissues, blood, or reaction buffer) were treated with ice-cold PCA, after extraction and centrifugation, the collected supernatant was appropriately diluted in 5% ice-cold PCA when applicable, and then was vortexed for 30 s and centrifuged at 15,000 rpm, 4°C for 5 min. […] All the samples after handling were immediately analyzed in this study without freezing and thawing.
The LC-MS/MS system consisted of a triple quadrupole LCMS-8050 (Shimadzu) and an LC-30A system (Shimadzu). […] NAD^+ and NMN were measured independently in this study, as their peaks were hardly separated within a short time.

[1] = tested on: bone marrow-derived macrophages (BMDMs); assay: Extracellular NMN degradation in primed BMDMs; format: cell-based, mouse; settings: WT BMDMs, not in CD38 KO BMDMs; NMN 100 μM, 6 hr
Procedure: Bone marrow cells were isolated from 10- to 12-week-old WT or CD38 KO mice (both male and female) by washing the marrow cavity with sterile PBS. The collected bone marrow cells were filtered by 70 μm strainers and then centrifuged at 1000 rpm, 4°C for 5 min. The cell pellet was resuspended in 2 mL red blood cell (RBC) lysis buffer for 30 s, then 8 mL complete RPMI-1640 medium (10% FBS, 1% penicillin/streptomycin, and 50 μM 2-mercaptoethanol) was added to terminate the lysis. After 5 min centrifugation at 1000 rpm, 4°C, the cells were resuspended in fresh complete RPMI-1640 medium and maintained for 4 hr in an incubator. Adherent cells were discarded, whereas non-adherent cells were cultured in complete RPMI-1640 medium containing 20 ng/mL M-CSF. After 3-day differentiation, the medium was replaced with fresh complete RPMI-1640 medium containing 20 ng/mL M-CSF. On the 7th day, BMDMs were collected for subsequent experiments. BMDMs were primed with 100 ng/mL ultrapure LPS for 4 hr for canonical inflammasome assay. For metabolic assay of NMN, BMDMs were primed with 100 ng/mL ultrapure LPS for 8 hr to induce higher protein expression of CD38.
WT and CD38 KO BMDMs were primed with 100 ng/mL ultrapure LPS for 8 hr, then the cells were washed twice with sterile PBS. Primed BMDMs were maintained in RPMI-1640 medium supplemented with 100 μM NMN in the presence or absence of sUA. […]

primed WT BMDMs = assay: Canonical inflammasome assay, IL-1β release in primed BMDMs; format: cell-based, mouse
Procedure: Human IL-1β, mouse IL-1β, IL-6, IL-18, TNF-α, and CXCL1 levels were measured according to the protocols provided by the manufacturer. Serum samples were diluted before ELISA when applicable. In this study, all the samples were frozen after collection and thawed before ELISA.
WT and CD38 KO BMDMs were primed with 100 ng/mL ultrapure LPS for 4 hr. Subsequently, primed BMDMs were pre-incubated with or without sUA for 2 hr, the cells were then washed twice with sterile PBS and were stimulated with nigericin, MSU crystals, or cLPS in serum-free RPMI-1640 medium.
After stimulation, the culture medium was collected and centrifuged at 3000 rpm, 4°C for 5 min, the supernatant was collected and stored at –30°C until ELISA.

- NAD+ availability, degradation by recombinant hCD38 (recombinant hCD38): increased NAD^+ availability
- Induction of IL-1β release by sUA itself (primed WT BMDMs; sUA 100, 200 and 500 μM, 6 hr): did not induce IL-1β release
Structure (SMILES): O=c1[nH]c(=O)c2[nH]c(=O)[nH]c2[nH]1 [sUA, uric acid]
- Extracellular NMN availability [1]: increased extracellular NMN availability
- Inflammasome activation (IL-1β release) (primed WT BMDMs; sUA 100 or 200 μM pre-incubation 2 hr): hardly suppressed inflammasome activation

Source: publication PMC11554305, “Functional identification of soluble uric acid as an endogenous inhibitor of CD38” (eLife, 2024)
